{
  "source": "patent US20100105746A1",
  "about": "“METHOD FOR TREATING METABOLIC DISEASES” (priority 2008, published 2010)",
  "key": {"human PPARα": {"biological_target": "T1, human PPARα (Homo sapiens, UniProt Q07869)", "T1 construct": "expressed in transfected cells; host or cells: HepG2", "T1 sequence (Q07869 1-468)": "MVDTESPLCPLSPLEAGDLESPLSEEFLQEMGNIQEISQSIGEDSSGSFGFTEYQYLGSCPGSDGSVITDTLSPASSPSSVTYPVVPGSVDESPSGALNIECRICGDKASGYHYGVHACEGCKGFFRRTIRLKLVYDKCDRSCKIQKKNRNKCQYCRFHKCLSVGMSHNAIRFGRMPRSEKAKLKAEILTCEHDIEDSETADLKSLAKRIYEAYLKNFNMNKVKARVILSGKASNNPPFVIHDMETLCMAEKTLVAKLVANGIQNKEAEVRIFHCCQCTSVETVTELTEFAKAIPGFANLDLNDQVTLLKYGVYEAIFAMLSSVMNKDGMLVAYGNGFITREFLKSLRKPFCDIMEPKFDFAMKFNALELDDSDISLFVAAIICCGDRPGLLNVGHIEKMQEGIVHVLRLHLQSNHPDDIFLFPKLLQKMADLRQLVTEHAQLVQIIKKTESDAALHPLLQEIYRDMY", "test": "PPARRE-luciferase reporter in HepG2 cells transfected with human PPARα", "type": "cell-based", "conditions": "retinoic acid 200 nM, read-out: EC50 activation of human PPARα (hPPARα)", "protocol": "For this study, a luciferase reporter plasmid containing 5 copies of a defined genetic regulatory PPARα response element (PPARRE) was utilized to detect romazarit-induced PPARRE activation in presence of a co-activator, retinoic acid. Specifically, HepG2 cells were transfected with expression vectors for either human or rat PPARα and the PPARRE-luciferase reporter plasmid. After 24 hours, the cells were trypsanized and subsequently seeded in 96-well clear-bottom plates at a density of 1.0×10^5 cells/ml."}, "[1]": {"test": "Terminal fasting serum glucose and lipids in rats with diet-induced obesity (Example 6)", "type": "in vivo, rat", "conditions": "DIO rats, vs vehicle control", "protocol": "As part of the study described in Example 4, a terminal blood sample (0.5 ml whole blood in EDTA) was collected on day 24, after a 12-18 hour fast. Whole blood was processed to serum, and analyzed for glucose, total cholesterol, HDL cholesterol, free fatty acids and total triglycerides."}, "[2]": {"test": "Weight gain in rats over seven-day dosing (Example 3)", "type": "in vivo, rat", "conditions": "7 days", "protocol": "(§1) In an initial experiment, two dose groups of six animals per group received either 5 or 50 mg/kg b.i.d., and a further group received vehicle only, as a control. A follow-up experiment was performed to explore dose-response and the selected doses were 15 and 50 mg/kg b.i.d., again plus control.\nBody weights of individual rats were recorded before and after the seven-day dosing period."}, "[3]": {"test": "Oral glucose tolerance test (OGTT) in rats with diet-induced obesity (Example 5)", "type": "in vivo, rat", "conditions": "for Glucose concentration maximum / Glucose concentration excursion (baseline to maximum): OGTT day 21, DIO rats; for Time to maximum (glucose concentration): OGTT day 21, dextrose 2 g/kg, DIO rats", "protocol": "As part of the study described in Example 4, an oral glucose tolerance test (OGTT) was performed on day 21 of the dosing period, after a 2-4 hour fast. Dextrose (2 g/kg) was administered by oral gavage. Blood for glucose analysis was collected at 0, 15, 30, 60, 120 and 180 minutes after dextrose administration. At each time point, 0.25 ml whole blood was collected in EDTA, processed to plasma, and analyzed for blood glucose with a low-volume glucose kit."}, "[4]": {"test": "Body weight, food consumption and liver weight in diet-induced obese (DIO) rat model (Example 4)", "type": "in vivo", "conditions": "for liver weight: rat, in vivo, po", "protocol": "Male Sprague-Dawley rats were acclimated for 7 weeks on a high-fat diet before commencement of dose administration, and maintained on the same diet throughout the subsequent dosing period of 23 days. The high-fat diet (D12492 commercially available from Research Diets, Inc., New Brunswick, N.J.) was one in which at least 60% of calories are derived from fat.\nDose levels of gemfibrozil (50 mg/kg) and sibutramine (10 mg/kg) were selected based on published reports. All treatments were administered once daily by oral gavage in 10 ml vehicle. A vehicle-only control was also administered. Each treatment group consisted of 10 animals.\nBody weight of each animal was measured weekly during the 7-week acclimation period and five times weekly during the 23-day dosing period. Food consumption was recorded twice weekly during the 7-week acclimation period and five times weekly during the 23-day dosing period.\nAnimals were sacrificed and liver weights measured at conclusion of the study."}, "[5]": {"test": "LC-MS of plasma amino acids and thyroxine in rats (Example 2)", "type": "in vivo, rat", "conditions": "7 days", "protocol": "as §1\nIn both experiments, urine was collected from each animal by clean-catch after the final dose on day 7, and cerebrospinal fluid (CSF) and plasma were collected (terminal samples) on day 8. Aliquots of the CSF and plasma samples from each individual were submitted for LC-MS analyses of bioanalytes. Three different separation methods were run, with MS analyses in both positive and negative ion modes, to enable resolution of relative quantification of the bioanalytes."}, "[6]": {"conditions": "50 mg/kg b.i.d. p.o., second experiment"}, "[7]": {"conditions": "DIO rats, 50 mg/kg once daily p.o."}, "[8]": {"conditions": "DIO rats, 100 mg/kg once daily p.o."}, "[9]": {"conditions": "5 and 50 mg/kg b.i.d. p.o., initial experiment"}},
  "data": [
    {"molecule": "Cc1nc(-c2ccc(Cl)cc2)oc1COC(C)(C)C(=O)O", "note": "[romazarit, 2-[[2-(4-chlorophenyl)-4-methyl-5-oxazolyl]methoxy]-2-methylpropanoic acid]", "values": [
      {"measurement": "EC50", "setting": "human PPARα", "result": "~200", "unit": "µM"},
      {"measurement": "terminal (total) cholesterol levels", "setting": "[1]; day 24, 15 mg/kg once daily", "result": "not statistically significant"},
      {"measurement": "terminal HDL levels", "setting": "[1]; day 24, 15 mg/kg once daily", "result": "not statistically significant"},
      {"measurement": "terminal fasting levels of triglycerides", "setting": "[1]; day 24, 15 mg/kg once daily", "result": "significant reduction"},
      {"measurement": "terminal fasting serum glucose", "setting": "[1]; day 24, 15 mg/kg once daily", "result": "significantly reduced"},
      {"measurement": "terminal levels of free fatty acids", "setting": "[1]; day 24, 15 mg/kg once daily", "result": "did not, at any of the tested doses, affect"},
      {"measurement": "terminal (total) cholesterol levels", "setting": "[1]; day 24, 50 mg/kg once daily", "result": "significantly reduced"},
      {"measurement": "terminal HDL levels", "setting": "[1]; day 24, 50 mg/kg once daily", "result": "significantly reduced"},
      {"measurement": "terminal fasting levels of triglycerides", "setting": "[1]; day 24, 50 mg/kg once daily", "result": "significant reduction"},
      {"measurement": "terminal fasting serum glucose", "setting": "[1]; day 24, 50 mg/kg once daily", "result": "significantly reduced"},
      {"measurement": "terminal levels of free fatty acids", "setting": "[1]; day 24, 50 mg/kg once daily", "result": "did not, at any of the tested doses, affect"},
      {"measurement": "terminal (total) cholesterol levels", "setting": "[1]; day 24, 100 mg/kg once daily", "result": "significantly reduced"},
      {"measurement": "terminal HDL levels", "setting": "[1]; day 24, 100 mg/kg once daily", "result": "significantly reduced"},
      {"measurement": "terminal fasting levels of triglycerides", "setting": "[1]; day 24, 100 mg/kg once daily", "result": "did not achieve statistical significance"},
      {"measurement": "terminal fasting serum glucose", "setting": "[1]; day 24, 100 mg/kg once daily", "result": "significantly reduced"},
      {"measurement": "terminal levels of free fatty acids", "setting": "[1]; day 24, 100 mg/kg once daily", "result": "did not, at any of the tested doses, affect"},
      {"measurement": "weight gain", "setting": "[2]; 15 mg/kg b.i.d. p.o., second experiment", "result": "generally similar to that seen in the initial experiment with the 5 mg/kg dose"},
      {"measurement": "weight gain", "setting": "[2]; 50 mg/kg b.i.d. p.o., initial experiment", "result": "dramatic inhibition of weight gain"},
      {"measurement": "weight gain", "setting": "[2]; [6]", "result": "not only inhibited weight gain, but even resulted in weight loss"},
      {"measurement": "Glucose concentration maximum", "setting": "[3]; 15 mg/kg", "result": 230.1, "unit": "mg/dL"},
      {"measurement": "Glucose concentration excursion (baseline to maximum)", "setting": "[3]; 50 mg/kg", "result": 61.1, "unit": "mg/dL"},
      {"measurement": "Glucose concentration maximum", "setting": "[3]; 50 mg/kg", "result": 203.3, "unit": "mg/dL"},
      {"measurement": "Glucose concentration excursion (baseline to maximum)", "setting": "[3]; 100 mg/kg", "result": 42.7, "unit": "mg/dL"},
      {"measurement": "Glucose concentration maximum", "setting": "[3]; 100 mg/kg", "result": 185.1, "unit": "mg/dL"},
      {"measurement": "Time to maximum (glucose concentration)", "setting": "[3]; 15 mg/kg", "result": 15, "unit": "min"},
      {"measurement": "Time to maximum (glucose concentration)", "setting": "[3]; 50 mg/kg", "result": 15, "unit": "min"},
      {"measurement": "Time to maximum (glucose concentration)", "setting": "[3]; 100 mg/kg", "result": 60, "unit": "min"},
      {"measurement": "food consumption", "setting": "[4]; DIO rats, 15 mg/kg once daily p.o., throughout the dosing period", "result": "comparable to the vehicle control"},
      {"measurement": "day by which food consumption returned to levels comparable to the vehicle control", "setting": "[4]; [7]", "result": "≤ 15", "unit": "days"},
      {"measurement": "day of minimum food consumption", "setting": "[4]; [7]", "result": 6, "unit": "days"},
      {"measurement": "body weight loss by comparison with the vehicle control", "setting": "[4]; DIO rats, 50 mg/kg once daily p.o., day 16", "result": 10.3, "unit": "%"},
      {"measurement": "body weight loss by comparison with the vehicle control", "setting": "[4]; DIO rats, 50 mg/kg once daily p.o., day 23", "result": 4.6, "unit": "%"},
      {"measurement": "food consumption", "setting": "[4]; DIO rats, 50 mg/kg once daily p.o., first 13 days of the dosing period", "result": "significantly less than the vehicle control"},
      {"measurement": "day by which food consumption returned to levels comparable to the vehicle control", "setting": "[4]; [8]", "result": "≤ 15", "unit": "days"},
      {"measurement": "day of minimum food consumption", "setting": "[4]; [8]", "result": 8, "unit": "days"},
      {"measurement": "body weight loss by comparison with the vehicle control (maximum)", "setting": "[4]; DIO rats, 100 mg/kg once daily p.o., day 16", "result": 16, "unit": "%"},
      {"measurement": "body weight loss by comparison with the vehicle control", "setting": "[4]; DIO rats, 100 mg/kg once daily p.o., end of study (day 23)", "result": 13.3, "unit": "%"},
      {"measurement": "food consumption", "setting": "[4]; DIO rats, 100 mg/kg once daily p.o., first 13 days of the dosing period", "result": "significantly less than the vehicle control"},
      {"measurement": "liver weight", "setting": "[4]; 15 mg/kg", "result": "No increase in liver weight"},
      {"measurement": "liver weight", "setting": "[4]; 50 mg/kg", "result": "Increased liver weight"},
      {"measurement": "liver weight", "setting": "[4]; 100 mg/kg", "result": "Increased liver weight"},
      {"measurement": "plasma amino acids", "setting": "[5]; [6]", "result": "generally similar to those for the same dose in the initial experiment"},
      {"measurement": "plasma thyroxine", "setting": "[5]; [6]", "result": "generally similar to those for the same dose in the initial experiment"},
      {"measurement": "levels of common amino acids in plasma", "setting": "[5]; [9]", "result": "small but significant lowering"},
      {"measurement": "plasma thyroxine (T4)", "setting": "[5]; [9]", "result": "concomitant decrease"}
    ]}
  ]
}
